# Results published in patent US9078843B2, “Immunogenic fragments of T-cell receptor constant domains and peptides derived therefrom” (priority 2005, dated 2015).
# Columns and labels:
# IgM in sera = experiment: Antigen microarray, serum IgM binding to TCR gamma constant region peptides; design: species or system human; conditions: serum 1:5
# Text: (§1) The antigenicity of peptides derived from human T-cell receptor gamma-chain constant region (accession no: AAB63314; SEQ ID NO:173) was essayed using antigen array technology, as detailed below.
# (§2) Serum samples: Blood samples were obtained by random availability from 12 healthy adults and from 9 adults newly diagnosed with lung cancer, before treatment. All samples were collected with informed consent and approval of the Helsinki committee of the Sheba Medical Center, Tel Hashomer, Israel. The blood samples were allowed to clot at room temperature. After centrifugation, sera were collected and stored at −20° C.
# (§3) Antigen microarray: Antigens diluted in PBS were placed in 384-well plates at a concentration of 1 μg/μl. We used a robotic MicroGrid arrayer with solid spotting pins of 0.2 mm in diameter (BioRobotics, Cambridge, U.K.) to spot the antigens onto ArrayIt SuperEpoxi microarray substrate slides (TeleChem, Sunnyvale, Calif.). the antigens were spotted in replicates of 4, and the microarrays were blocked for 1 h at 37° C. with 1% bovine serum albumin, and incubated under a cover-slip overnight at 4° C. with a 1:5 dilution of the test serum in blocking buffer. The quantitative range of signal intensity of binding to each antigen spot was 0.01-65,000, and this range of detection made it possible to record reliable data with little dilution of test samples. The arrays were then washed and incubated for 1 hour at 37° C. with a 1:500 dilution of detection antibodies. Two detection antibodies were used: a goat anti-human IgG Cy3-conjugated antibody and a goat anti-human IgM Cy5-conjugated antibody, purchased from Jackson ImmunoResearch, West Grove, Pa. The arrays were washed again, spin-dried, and scanned with a ScanArray 4000× scanner (GSI Luminomics, Billerica, Mass.). The results were recorded as TIFF files. Image acquisition by laser and quantification were done as described (Quintana et al., 2004).
# (§4) Data preprocessing and background filtering: Antigen reactivity was defined by the mean intensity of the 4 replicates of binding to that antigen on the microarray. We identified positive antibodies in the following way: To establish the minimum level of significant antibody binding, we calculated the mean reactivity level of 32 spots incubated with phosphate buffered saline (PBS) in place of an antigen on each microarray slide. A signal was scored as positive when it expressed intensity greater than the upper limit of the PBS control, which was defined as the mean intensity of the PBS spots plus 2-times the standard deviation. Signal intensity above the PBS background was considered positive antibody binding.
# (§5) The presence of IgG and IgM in sera obtained from patients with lung cancer and from healthy controls was determined using the antigen microarray, as detailed above. The results, presented in Table 13, represent the mean reactivity of 12 control subjects and 9 lung cancer subjects.
# IgG in sera = experiment: Antigen microarray, serum IgG binding to TCR gamma constant region peptides; design: species or system human; conditions: for Antigen Binding (Mean Intensity) IgG: serum 1:5
# Text: as §1, §2, §3, §4, §5
# adjuvant arthritis (AA) = experiment: Adjuvant arthritis (AA) after vaccination with recombinant proteins or peptides; format: in vivo, Lewis rats; conditions: single ip dose of 100 μg protein or peptide in IFA, AA induced seven days later; FIG. 4
# Experimental: AA was induced as described (Quintana et al 2002), using 1 mg per rat of heat-killed Mt strain H37Ra (Difco). Each experimental and control group contained at least 8 rats. The day of AA induction was designated as day 0, and disease severity was assessed by direct observation of all 4 limbs in each animal. A relative score between 0 and 4 was assigned to each limb, based on the degree of joint inflammation, redness and deformity; thus the maximum possible score for an individual animal was 16 (Quintana et al 2002). The mean AA score (±SEM) is shown for each experimental group. Arthritis was also quantified by measuring hind limb diameter with a caliper. Measurements were taken on the day of the induction of AA and 26 days later (at the peak of AA); the results are presented as the mean±SEM of the difference between the two values for all the animals in each group. The person who scored the disease was blinded to the identity of the groups. Experiments were repeated at least 3 times and produced similar results.
# Female Lewis rats were immunized ip with a single dose of 100 μg of peptide or recombinant protein emulsified in IFA.
# We studied the immune effects of vaccination with recombinant C1 (rβC1) or C2 (rβC2), or with C1/2-derived peptides (Table 1). Female Lewis rats were immunized with a single ip dose of 100 μg of protein or peptide in IFA, and seven days later AA was induced.
# [1] = system: draining lymph node cells (LNC); experiment: T-cell proliferation of lymph node cells from vaccinated rats ([methyl-3H]-thymidine, stimulation index); format: cell-based, Lewis rats; conditions: for proliferative responses of LNC to PPD: LNC from peptide immunized rats; for T-cell responses of immunized rats to the immunizing peptide (immunogenicity): rats vaccinated with the peptide, FIG. 6B
# Experimental: Unless otherwise stated, T-cell proliferation assays were performed at day 26 after the induction of AA, when the disease is at its peak, as previously described (Quintana et al 2002). Briefly, popliteal and inguinal lymph node cells (LNC), were cultured in quadruplicates in 200 μl round bottom microtiter wells (Costar Corp., Cambridge, USA) at 2×10^5 cells per well with or without antigen. The T-cell mitogen Concanavalin A (Con A) was used as a positive control for T-cell proliferation. Cultures were incubated for 96 hrs at 37° C. in a humidified atmosphere of 5% CO2. T-cell responses were detected by the incorporation of [methyl-3H]-thymidine (Amersham, Buckinghamshire, UK; 1 μCi/well), which was added to the wells for the last 18 hours. The stimulation index (SI) was computed as the ratio of the mean c.p.m. of antigen- or mitogen-containing wells to control wells cultured with medium alone. The results of T-cell proliferation experiments are shown as SI±SEM, T-cell responses with SI<2 were considered not significant.
# To study the immune responses associated with the inhibition of AA by DNA vaccination with pβC1 or pβC2, we analyzed the T-cell responses of immunized rats 26 days after the induction of AA. We stimulated draining lymph node cells (LNC) in vitro with a collective of Mycobacterial antigens known to be associated with AA: HSP65, PPD and Mt176-190. The Mt176-190 peptide contains the 180-188 epitope of HSP65 described by van Eden et al which is recognized by HSP65-specific T-cell clones that can transfer AA (van Eden et al 1985). We also studied the immune response directed to recombinant βC1 and recombinant βC2, or to βC1/2 peptides predicted to bind the MHC class II molecule of the Lewis rat (see Table 1). Glutathione-S-transferase (GST) was included as a control antigen. […] 149 (MED12).
# To study the effect of C1/2 vaccination on the immune response to C1/2 peptides and to the target antigens of AA, we vaccinated rats with rβC1 or rβC2, and then induced AA. At day 26, we removed the draining lymph nodes and measured the T-cell proliferative responses to peptides N12 (SEQ ID NO:147), MED12 (SEQ ID NO:149) or C2C (SEQ ID NO:152), or to the Mycobacterial antigens. […] Thus the C1/2 peptides are immunologically dominant.
# [2] = HEALTHY CONTROLS, mean of 12 subjects
# [3] = LUNG CANCER, mean of 9 subjects
Substance,Antigen Binding (Mean Intensity) IgM (IgM in sera; [2]),Antigen Binding (Mean Intensity) IgM (IgM in sera; [3]),Antigen Binding (Mean Intensity) IgG (IgG in sera; [2]),Antigen Binding (Mean Intensity) IgG (IgG in sera; [3]),response of antibodies to the peptide (IgG in sera; antibodies from control subjects),severity of the disease (AA score) (adjuvant arthritis (AA)),proliferative responses of LNC to PPD ([1]; FIG. 6A),T-cell responses of immunized rats to the immunizing peptide (immunogenicity) [1],"proliferative responses of LNC to mt180 and HSP65 ([1]; LNC from peptide-vaccinated rats, FIG. 6A)"
AYYMYLLLLLKSVVYFAIIT [SEQ ID NO:166],87,140,199,996,,,,,
DQEIIFPPIKT [SEQ ID NO:161],86,160,−147,846,,,,,
KAGTYLCLLEKFFPDVIKI [SEQ ID NO:158],1753,2381,2233,2116,responded,,,,
KEHRCIVDTLLLQL [SEQ ID NO:165],97,103,95,1095,,,,,
KPTIFLPSSWLTVPE [SEQ ID NO:164],−24,86,−240,−114,,,,,
VVYFAIITCCLLRRTAFCCN [SEQ ID NO:167],548,512,376,1928,,,,,
dspkpvtqnisaeawgr (DSPKPVTQNISAEAWGR; listed as Rattus norvegicus) [MED12],,,,,,significantly decreased,increased proliferative responses,significant T-cell responses,
vlvsalvlmamvkkkns (VLVSALVLMAMVKKKNS; listed as Rattus norvegicus) [C2C],,,,,,significantly decreased,increased proliferative responses,significant T-cell responses,increased proliferative responses
vtppkvslfepseaeia (VTPPKVSLFEPSEAEIA; listed as Rattus norvegicus) [N12],,,,,,significantly decreased,increased proliferative responses,significant T-cell responses,
